Results reported in ChEMBL document CHEMBL1201862, “PubChem BioAssay data set” (2004).
Activity calls are given as the source filed them.

Legend:
[1] = molecular target: T1, Histone-lysine N-methyltransferase NSD2 (Homo sapiens, UniProt O96028); type: biochemical
T1 sequence (O96028 whole entry): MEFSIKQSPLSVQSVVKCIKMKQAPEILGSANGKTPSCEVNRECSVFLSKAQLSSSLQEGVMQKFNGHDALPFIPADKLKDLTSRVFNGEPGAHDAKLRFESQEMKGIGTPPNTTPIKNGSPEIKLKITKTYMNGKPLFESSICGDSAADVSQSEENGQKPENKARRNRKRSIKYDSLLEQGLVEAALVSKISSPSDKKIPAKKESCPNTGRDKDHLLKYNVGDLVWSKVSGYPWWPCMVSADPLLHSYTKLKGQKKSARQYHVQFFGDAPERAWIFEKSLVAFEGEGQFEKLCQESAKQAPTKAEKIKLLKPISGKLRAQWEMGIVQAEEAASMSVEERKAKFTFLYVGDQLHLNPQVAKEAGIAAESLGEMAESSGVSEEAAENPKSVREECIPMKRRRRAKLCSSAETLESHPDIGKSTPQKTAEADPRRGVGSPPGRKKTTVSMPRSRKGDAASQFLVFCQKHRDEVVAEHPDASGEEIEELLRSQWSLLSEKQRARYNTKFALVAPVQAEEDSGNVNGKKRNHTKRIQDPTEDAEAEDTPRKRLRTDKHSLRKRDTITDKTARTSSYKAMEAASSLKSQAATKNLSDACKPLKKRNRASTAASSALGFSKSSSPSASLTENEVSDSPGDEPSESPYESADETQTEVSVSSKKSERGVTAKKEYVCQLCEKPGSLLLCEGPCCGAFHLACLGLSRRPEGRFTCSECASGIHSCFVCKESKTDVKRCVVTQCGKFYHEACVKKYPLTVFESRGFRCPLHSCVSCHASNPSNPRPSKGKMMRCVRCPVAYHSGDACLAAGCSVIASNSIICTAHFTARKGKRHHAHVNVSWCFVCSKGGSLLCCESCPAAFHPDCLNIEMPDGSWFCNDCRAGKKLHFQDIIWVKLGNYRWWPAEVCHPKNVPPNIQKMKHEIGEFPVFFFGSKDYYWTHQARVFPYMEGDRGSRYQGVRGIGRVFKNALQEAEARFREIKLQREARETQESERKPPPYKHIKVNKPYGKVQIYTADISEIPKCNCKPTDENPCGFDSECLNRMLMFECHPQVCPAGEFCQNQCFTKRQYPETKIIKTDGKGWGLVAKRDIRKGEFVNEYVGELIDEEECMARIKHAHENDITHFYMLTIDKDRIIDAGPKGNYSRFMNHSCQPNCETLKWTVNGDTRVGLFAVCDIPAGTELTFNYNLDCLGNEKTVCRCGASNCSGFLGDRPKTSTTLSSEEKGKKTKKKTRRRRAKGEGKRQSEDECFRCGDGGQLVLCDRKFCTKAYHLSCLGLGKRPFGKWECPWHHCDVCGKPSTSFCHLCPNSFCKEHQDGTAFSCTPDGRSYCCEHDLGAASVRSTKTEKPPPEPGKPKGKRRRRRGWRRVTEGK

[2] = molecular target: Heat shock protein HSP 90-alpha (Homo sapiens, UniProt P07900); type: functional, organism-based
[3] = HEK293 cell cytotoxicity, dose response, cytotoxicity control, plate reader, cherry-picked samples (AID 743446); type: functional, cell-based
[4] = MC4R antagonists, dose response, counter-screen for LGR2 antagonist project, cell-based, plate reader, cherry pick (AID 743444); type: functional;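 note: transfected HEK 293 cells stimulated with alpha-MSH peptide; potency of inhibitors of the alpha-MSH evoked signal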
[5] = LGR2 antagonists, dose response, cell-based, HEK293, CRE-luciferase reporter, cherry pick, set 2 (AID 743343); type: functional;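 note: transfected cells were stimulated with diluted bursicon conditioned medium after compound addition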
[6] = A549 cell cytotoxicity, dose response, cytotoxicity control, plate reader, cherry-pick, antagonist series (AID 743412); type: functional, cell-based
INS1 = assay: beta cell apoptosis inhibitors, cytokine rescue, dose response, luminescence, retest (AID 449756); type: functional, cell-based; conditions: Rattus norvegicus;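 note: cell death triggered by IL-1 beta plus TNF-alpha plus IFN-gamma mixture; protective hits raise ATP signal compared with cytokine alone wells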
[7] = molecular target: T2, DNA repair and recombination protein RAD54-like (Homo sapiens, UniProt Q92698); assay: inhibitors of human RAD54 branch migration, confirmation, biochemical, fluorescence, cherry-picked samples, dose series (AID 651657); type: functional
T2 sequence (Q92698 whole entry): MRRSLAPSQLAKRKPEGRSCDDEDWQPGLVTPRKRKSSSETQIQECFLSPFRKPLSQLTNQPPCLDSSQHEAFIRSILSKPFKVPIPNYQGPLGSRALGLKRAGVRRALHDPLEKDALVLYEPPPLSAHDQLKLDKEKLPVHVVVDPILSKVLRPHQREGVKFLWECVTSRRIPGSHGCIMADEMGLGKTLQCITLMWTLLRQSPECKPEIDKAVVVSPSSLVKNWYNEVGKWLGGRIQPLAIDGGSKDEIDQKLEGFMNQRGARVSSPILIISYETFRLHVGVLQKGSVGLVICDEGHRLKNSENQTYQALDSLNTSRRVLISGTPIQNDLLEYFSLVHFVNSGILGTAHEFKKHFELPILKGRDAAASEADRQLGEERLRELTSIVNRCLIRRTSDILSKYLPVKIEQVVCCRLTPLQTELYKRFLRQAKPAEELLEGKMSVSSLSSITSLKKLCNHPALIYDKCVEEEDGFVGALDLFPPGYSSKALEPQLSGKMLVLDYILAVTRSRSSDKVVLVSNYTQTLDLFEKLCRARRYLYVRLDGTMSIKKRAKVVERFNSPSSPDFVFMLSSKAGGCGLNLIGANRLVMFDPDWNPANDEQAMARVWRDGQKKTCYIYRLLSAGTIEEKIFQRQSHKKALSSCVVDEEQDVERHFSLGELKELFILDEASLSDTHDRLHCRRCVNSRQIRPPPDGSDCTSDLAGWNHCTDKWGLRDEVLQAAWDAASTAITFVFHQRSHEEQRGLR

[8] = HepG2 cell cytotoxicity, dose response, cytotoxicity control, plate reader, cherry-pick, antagonist series (AID 743416); type: functional, cell-based
[9] = HepG2 cell cytotoxicity, dose response, cytotoxicity control, ATP luminescence, cherry-pick, activator set 2 (AID 1053143); type: functional, cell-based
[10] = molecular target: T3, Low molecular weight phosphotyrosine protein phosphatase (Homo sapiens, UniProt P24666); type: functional; conditions: read-out: IC50_Mean
T3 sequence (P24666 whole entry): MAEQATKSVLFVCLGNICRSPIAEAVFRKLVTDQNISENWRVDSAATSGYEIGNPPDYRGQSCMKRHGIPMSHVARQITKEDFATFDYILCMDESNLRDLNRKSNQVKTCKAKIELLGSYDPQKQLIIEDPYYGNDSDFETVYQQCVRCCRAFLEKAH

[11] = molecular target: T4, Heat shock factor protein 1 (Mus musculus, UniProt P38532); assay: inhibition of MG132-induced HSE-luciferase signal, confirmation, cell-based, NIH3T3, luminescence, dose retest (AID 2382); type: functional;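 note: NIH3T3 fibroblasts with HSF1-driven luciferase reporter stressed by proteasome inhibitor MG132; luminescence from HSF1-driven luciferase expression after 8 hours of MG132 stress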
T4 sequence (P38532 whole entry): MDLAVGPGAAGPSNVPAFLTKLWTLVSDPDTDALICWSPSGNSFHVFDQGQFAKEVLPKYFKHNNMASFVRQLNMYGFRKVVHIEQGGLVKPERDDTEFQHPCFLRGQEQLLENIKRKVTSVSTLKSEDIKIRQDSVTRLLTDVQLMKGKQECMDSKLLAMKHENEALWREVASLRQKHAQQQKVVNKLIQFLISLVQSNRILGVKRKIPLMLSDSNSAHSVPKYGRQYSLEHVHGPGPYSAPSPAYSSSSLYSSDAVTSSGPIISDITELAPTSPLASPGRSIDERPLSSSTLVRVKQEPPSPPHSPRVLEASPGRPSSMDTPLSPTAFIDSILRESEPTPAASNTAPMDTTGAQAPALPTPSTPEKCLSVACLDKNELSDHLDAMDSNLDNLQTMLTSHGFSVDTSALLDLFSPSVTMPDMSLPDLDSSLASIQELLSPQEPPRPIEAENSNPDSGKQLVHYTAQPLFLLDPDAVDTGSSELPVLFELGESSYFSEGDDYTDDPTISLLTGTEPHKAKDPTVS

[12] = molecular target: T5, Corticotropin-releasing factor receptor 2/Corticotropin-releasing factor-binding protein (Homo sapiens, UniProt P24387+Q13324); assay: Dose Response confirmation of uHTS hits for small molecule antagonists of the CRF-binding protein and CRF-R2 receptor complex.; type: functional; conditions: read-out: IC50_Mean
T5 sequence (Q13324 whole entry): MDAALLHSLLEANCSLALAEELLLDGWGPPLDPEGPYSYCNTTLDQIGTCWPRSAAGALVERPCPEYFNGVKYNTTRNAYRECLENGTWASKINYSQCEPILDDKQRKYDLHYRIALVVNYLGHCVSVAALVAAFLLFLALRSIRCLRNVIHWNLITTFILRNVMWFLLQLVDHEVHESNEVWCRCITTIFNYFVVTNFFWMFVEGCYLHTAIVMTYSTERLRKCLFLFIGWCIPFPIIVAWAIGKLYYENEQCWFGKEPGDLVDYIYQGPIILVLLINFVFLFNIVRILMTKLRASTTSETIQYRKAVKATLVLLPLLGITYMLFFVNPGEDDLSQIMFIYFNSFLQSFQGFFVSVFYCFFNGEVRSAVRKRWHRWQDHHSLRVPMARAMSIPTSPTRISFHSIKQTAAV
T5 sequence (P24387 whole entry): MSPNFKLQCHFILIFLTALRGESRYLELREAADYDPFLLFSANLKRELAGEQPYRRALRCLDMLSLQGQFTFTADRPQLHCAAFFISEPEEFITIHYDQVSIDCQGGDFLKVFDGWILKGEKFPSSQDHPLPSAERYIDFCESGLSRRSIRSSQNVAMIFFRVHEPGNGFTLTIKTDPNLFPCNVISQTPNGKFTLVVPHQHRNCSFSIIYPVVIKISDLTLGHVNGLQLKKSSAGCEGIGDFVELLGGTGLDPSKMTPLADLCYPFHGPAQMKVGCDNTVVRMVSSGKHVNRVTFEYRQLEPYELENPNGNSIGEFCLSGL

[13] = molecular target: T5, Corticotropin-releasing factor receptor 2/Corticotropin-releasing factor-binding protein; assay: activators of CRF receptor 2 with binding protein – uHTS hits, confirmation (AID 602473); type: functional; conditions: read-out: EC50_Mean
[14] = molecular target: T3, Low molecular weight phosphotyrosine protein phosphatase; type: functional; conditions: read-out: IC50_Mean; remark: listed apart in the source

Which AC50 [1] does the source give for `CC1=NOC(=O)/C1=C\c1ccc(-c2ccc(Br)cc2)o1` here?
The AC50 was > 20 µM (inactive).

And the AC50 [2]?
The AC50 was 4.12 µM (active).

For `CC(=O)Nc1sc2c(c1-c1nc3ccccc3s1)CN(C(C)C)CC2`, which AC50 [3] is on record?
Its AC50 is 25.7 µM (active).

What about the AC50 [4] of the same molecule?
Its AC50 is 23.2 µM (active).

And the AC50 [5]?
The AC50 was 27.7 µM (active).

And the AC50 [6]?
The AC50 was 2.35 µM (active).

What about the AC50 (INS1) of the same molecule?
The AC50 was 0.752 µM (active).

And the AC50 [7]?
The AC50 was 0.715 µM (active).

And the AC50 [8]?
Its AC50 is 3.52 µM (active).

What about the AC50 [9] of the same molecule?
The AC50 was 12.5 µM (active).

With `Cc1[nH]c(=O)c(C#N)cc1-c1csc(-c2ccccc2)n1` as the molecule, how does the IC50 [10] read?
The IC50 was 27 µM (inactive).

And the EC50 [11]?
Its EC50 is > 195 µM (not active).

And the IC50 [12]?
Its IC50 is > 47.1 µM (inactive).

What about the EC50 [13] of the same molecule?
The EC50 was > 53 µM (inactive).

And the IC50 [14]?
The IC50 was 67.8 µM (inactive).

For `CC1CCCN(c2nc3ccsc3c(=O)s2)C1` (configuration not stated), which AC50 [9] is on record?
The AC50 was > 52 µM (inactive).

With `Oc1ccccc1CNc1cccc2cccnc12` as the molecule, how does the AC50 [1] read?
Its AC50 is 14.4 µM (active).
